*1 amine or outer side, *2 acyl side, *3 side chain or, on linkers, in order; H or OH if unused. Where a SMILES comes first, the peptide text is derived from it. Bridges are numbered along the chain shown (N, C = ends). [ ]: non-standard residue; d: D form. The star is where a group is joined. C20 diacid = O=C(O)CCCCCCCCCCCCCCCCCCC(=O)*; γGlu = O=C(O)[C@H](CCC(=O)[*:2])N[*:1]; Hyp = O=C(O)[C@@H]1C[C@@H](O)CN1; NMeI = CC[C@H](C)[C@H](NC)C(=O)O; Sar = CNCC(=O)O
Experiments:
[1] = Assessment of physical stability (Thioflavin T fibrillation); format: physicochemical; design: key: FND = fibrillation not detected; FD = fibrillation detected; settings: 1 mg/ml, 40° C., ThT; for Fibrillation pH 4.0 (Ac): 50 mM acetate buffer pH 4.0, 96 hours; for Fibrillation pH 7.0 (His): 50 mM histidine buffer pH 7.0, 96 hours; for Fibrillation pH 7.0 (Phos.): 50 mM phosphate buffer pH 7.0, 96 hours
Outline: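 1 mg/ml peptide with 40 μM ThT in 50 mM phosphate pH 7.0, 50 mM histidine pH 7.0 or 50 mM acetate pH 4.0, in triplicate. Fluorescence read every 10 min after 300 s agitation over 96 h at 40 °C. Lag-time (h) is the intersection of linear fits to stable and growth phases.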

[2] = Pharmacokinetic (PK) profiling in rats; format: in vivo, rat; design: CI/F (apparent clearance values): unit not given here; settings: Sprague Dawley male rats, single sc 30 nmol/kg; for half-life: rat, plasma, read-out: Plasma terminal elimination half-life t1/2 (converted)
Outline: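 Male Sprague Dawley rats received a single sc dose of 30 nmol/kg in mannitol-containing histidine buffer (pH 7.0), with tail-vein sampling before dosing and at 24–168 hours. Plasma was ethanol-precipitated and assayed by LC-MS/MS. Non-compartmental analysis of mean concentrations gave t1/2 as ln(2)/λz and CL/F as dose/AUCinf.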

| SMILES | Fibrillation pH 4.0 (Ac) [1] | Fibrillation pH 7.0 (His) [1] | Fibrillation pH 7.0 (Phos.) [1] | CI/F (apparent clearance values) [2] | half-life [2] [h] |
| --- | --- | --- | --- | --- | --- |
| CC[C@H](C)[C@@H](C(=O)N[C@@H](CC(C)C)C(=O)N[C@@H](CO)C(=O)N[C@@H](CO)C(=O)N[C@H](C(=O)N[C@@H](CCC(=O)O)C(=O)N[C@H](C(=O)NCC(=O)N[C@@H](CO)C(=O)N[C@@H](CO)C(=O)N[C@H](C(=O)N1CCC[C@H]1C(N)=O)[C@@H](C)O)C(C)C)[C@@H](C)O)N(C)C(=O)[C@H](C)NC(=O)CN(C)C(=O)[C@H](Cc1ccccc1)NC(=O)[C@H](CO)NC(=O)[C@H](CO)NC(=O)[C@H](CCCNC(=N)N)NC(=O)[C@H](CCC(=O)O)NC(=O)[C@H](CC(C)C)NC(=O)[C@H](Cc1ccccc1)NC(=O)[C@H](Cc1c[nH]cn1)NC(=O)[C@H](C)NC(=O)[C@H](CC(C)C)NC(=O)[C@H](CCCNC(=N)N)NC(=O)[C@H](CCC(=O)O)NC(=O)[C@@H](NC(=O)[C@H](C)NC(=O)[C@@H]1CSSC[C@H](NC(=O)[C@H](CCCNC(=N)N)NC(=O)CC[C@H](NC(=O)CCCCCCCCCCCCCCCCCCC(=O)O)C(=O)O)C(=O)NCC(=O)N[C@@H]([C@@H](C)O)C(=O)N[C@@H](C)C(=O)N[C@@H]([C@@H](C)O)C(=O)N1)[C@@H](C)O [Compound 36, [19CD]-isoGlu-R-C( )-GTAT-C( )-ATERLAHFLERSSF-Gly(Me)-A-Ile(Me)-LSSTEVGSSTP-NH2] ({C20 diacid-γGlu}-RCGTATCATERLAHFLERSSF[Sar]A[NMeI]LSSTEVGSSTP-NH2; disulfide 2-7) | FND | FND | FD | 0.0117 | 25.7 |
| CC[C@H](C)[C@@H](C(=O)N[C@@H](CC(C)C)C(=O)N[C@@H](CO)C(=O)N[C@@H](CO)C(=O)N[C@H](C(=O)N[C@@H](CCC(=O)O)C(=O)N[C@H](C(=O)NCC(=O)N[C@@H](CO)C(=O)N[C@@H](CC(N)=O)C(=O)N[C@H](C(=O)N1C[C@H](O)C[C@H]1C(N)=O)[C@@H](C)O)C(C)C)[C@@H](C)O)N(C)C(=O)[C@H](C)NC(=O)CN(C)C(=O)[C@H](Cc1ccccc1)NC(=O)[C@H](CO)NC(=O)[C@H](CO)NC(=O)[C@H](CCCNC(=N)N)NC(=O)[C@H](CCC(N)=O)NC(=O)[C@H](CC(C)C)NC(=O)[C@H](Cc1ccccc1)NC(=O)[C@H](CC(=O)O)NC(=O)[C@H](C)NC(=O)[C@H](CC(C)C)NC(=O)[C@H](CCCNC(=N)N)NC(=O)[C@H](CCC(N)=O)NC(=O)[C@@H](NC(=O)[C@H](C)NC(=O)[C@@H]1CSSC[C@H](NC(=O)[C@H](CCCNC(=N)N)NC(=O)CC[C@H](NC(=O)CCCCCCCCCCCCCCCCCCC(=O)O)C(=O)O)C(=O)N[C@@H](CC(N)=O)C(=O)N[C@@H]([C@@H](C)O)C(=O)N[C@@H](C)C(=O)N[C@@H]([C@@H](C)O)C(=O)N1)[C@@H](C)O [Compound 49, [19CD]-isoGlu-R-C( )-NTAT-C( )-ATQRLADFLQRSSF-Gly(Me)-A-Ile(Me)-LSSTEVGSNT-Hyp-NH2] ({C20 diacid-γGlu}-RCNTATCATQRLADFLQRSSF[Sar]A[NMeI]LSSTEVGSNT[Hyp]-NH2; disulfide 2-7) | FD | FND | FND | 0.00406 | 36.7 |

From patent US20210115104A1, “AMYLIN ANALOGUES” (Zealand Pharma A/S, priority 2015, published 2021)
